Data from the NIST ThermoML archive (doi:10.1021/acs.jced.8b00643).

Assays:
[1] = Molar enthalpy of transition or fusion; details: Crystal; DSC
[2] = for vapor or sublimation pressure: Transpiration method

O=C1NCCCO1 [tetrahydro-1,3-oxazin-2-one]
Details | Molar enthalpy of transition or fusion [kcal/mol]
[1] | 3.66

Details | mass density [kg/m3]
[2], 293 K, 101.33 kPa, Crystal, Pycnometric method | 1490

[2]
Details | Triple point temperature [K] | vapor or sublimation pressure [kPa]
327.7 K, Crystal | – | 0.00023
332.7 K, Crystal | – | 0.00039
337.7 K, Crystal | – | 0.00061
342.7 K, Crystal | – | 0.001
345.7 K, Crystal | – | 0.00134
348.6 K, Crystal | – | 0.00167
352.6 K, Crystal | – | 0.0024
358 K, Liquid | – | 0.00409
361.3 K, Liquid | – | 0.00517
365.3 K, Liquid | – | 0.00677
368 K, Liquid | – | 0.00807
370.2 K, Liquid | – | 0.0095
372.8 K, Liquid | – | 0.01116
377.4 K, Liquid | – | 0.01498
380.3 K, Liquid | – | 0.01771
382.2 K, Liquid | – | 0.02005
385.1 K, Liquid | – | 0.02395
Crystal, DSC | 355.3 | –
